From patent US8906904B2, “Alkoxy pyrazoles as soluble guanylate cyclase activators” (Boehringer Ingelheim International GmbH, priority 2012, dated 2014)
Values after ≈ are worked out from the molar mass of the structure shown.

Assays:
[1] = Assessment of solubility (McIlvaine buffers, 24 h shake, UPLC-UV); format: physicochemical; details: kinetic from dmso stock
Procedure: Solubility is measured by the following method.
100 uL, 10 mM DMSO stock solution of each compound is prepared in a 96 well plate format. The experiment is done in single determination at 3 pH values (2.2, 4.5 and 6.8). For each pH and one reference, 40 uL of each compound is needed.
McIlvaine pH 2.2: To 2.076 g citric acid monohydrate and 0.043 g Na2HPO4×2H2O add 100 ml deionized water
McIlvaine pH 4.5: To 1.166 g citric acid monohydrate and 1.585 g Na2HPO4×2H2O add 100 ml deionized water
McIlvaine pH 6.8: To 0.476 g citric acid monohydrate and 2.753 g Na2HPO4×2H2O add 100 ml deionized water
With a suitable liquid handling device (Multipette® or a liquid handler) 390 uL of each buffer solution and 10 uL of compound is added to each well of a 96 deep well plate. The plates are covered firmly and shaken for 24 h on an over head shaker (at 54 RPM) at room temperature. The DMSO content in the final buffer is 2.5% v/v.
After 24 h the plates are centrifuged to remove droplets on the lid before opening (for ˜5 min at 2500 RPM).
The filtration is done under vacuum with Millipore 96 well filter plate. Filtrate is collected in a deep well plate and transferred to a suitable plate for UPLC analysis.
The reference plate is prepared by adding 10 uL of compound to 390 uL of 50:50 acetonitrile/water in a 96 deep well plate and transferred to a suitable plate for UPLC analysis. Wells are checked visually for precipitation, any presence noted under comments in reported results.
The samples are measured with UPLC-UV using the chromatographic method described below.
Waters Empower®2 software is used for generating Sample Sets (according to the plate layout), Sample Set Methods and Instrument Methods.
One Sample Set comprises the methods for three 96 well plates (one reference plate and two sample plates, and includes one Sample Set Method and one Instrument Method).
3. Data Processing and Analysis
The UV chromatograms collected at 254 nm are integrated and processed.
It is assumed that the compound is completely dissolved in the reference solution (50:50 acetonitrile/water)

[2] = biological target: T1, human soluble guanylate cyclase alpha 1 and beta 1 subunits (sGC) (Homo sapiens, UniProt Q02108+Q02153); assay: sGC cellular activator assay (cGMP, HTRF); format: cell-based; details: CHO cells stably expressing human sGC alpha 1/beta 1, preincubated with 40 microM ODQ; cGMP readout; assay run with and without 50% human serum, Table 2 does not say which
T1 construct: expressed in transfected cells; host or cells: Chinese hamster ovary (CHO) cells, stably transfected
T1 sequence (Q02108 1-690): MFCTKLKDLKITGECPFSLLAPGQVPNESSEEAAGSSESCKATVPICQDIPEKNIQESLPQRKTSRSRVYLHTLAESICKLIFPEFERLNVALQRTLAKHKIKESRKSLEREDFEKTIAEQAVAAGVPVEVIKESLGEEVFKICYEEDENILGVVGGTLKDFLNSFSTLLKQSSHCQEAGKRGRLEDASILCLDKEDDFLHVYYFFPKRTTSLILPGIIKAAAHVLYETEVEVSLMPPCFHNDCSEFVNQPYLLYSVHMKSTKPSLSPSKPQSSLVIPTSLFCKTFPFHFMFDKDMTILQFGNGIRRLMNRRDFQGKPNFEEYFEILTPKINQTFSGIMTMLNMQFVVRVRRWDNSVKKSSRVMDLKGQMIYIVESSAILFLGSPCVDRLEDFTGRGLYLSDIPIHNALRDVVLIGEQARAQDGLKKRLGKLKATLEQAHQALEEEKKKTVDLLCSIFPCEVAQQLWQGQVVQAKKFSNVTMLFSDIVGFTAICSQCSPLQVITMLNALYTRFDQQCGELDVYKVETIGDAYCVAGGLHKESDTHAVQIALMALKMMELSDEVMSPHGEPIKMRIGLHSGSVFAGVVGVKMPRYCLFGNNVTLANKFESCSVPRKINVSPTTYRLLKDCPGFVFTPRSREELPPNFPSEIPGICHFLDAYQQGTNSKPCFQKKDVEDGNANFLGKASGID
T1 sequence (Q02153 1-619): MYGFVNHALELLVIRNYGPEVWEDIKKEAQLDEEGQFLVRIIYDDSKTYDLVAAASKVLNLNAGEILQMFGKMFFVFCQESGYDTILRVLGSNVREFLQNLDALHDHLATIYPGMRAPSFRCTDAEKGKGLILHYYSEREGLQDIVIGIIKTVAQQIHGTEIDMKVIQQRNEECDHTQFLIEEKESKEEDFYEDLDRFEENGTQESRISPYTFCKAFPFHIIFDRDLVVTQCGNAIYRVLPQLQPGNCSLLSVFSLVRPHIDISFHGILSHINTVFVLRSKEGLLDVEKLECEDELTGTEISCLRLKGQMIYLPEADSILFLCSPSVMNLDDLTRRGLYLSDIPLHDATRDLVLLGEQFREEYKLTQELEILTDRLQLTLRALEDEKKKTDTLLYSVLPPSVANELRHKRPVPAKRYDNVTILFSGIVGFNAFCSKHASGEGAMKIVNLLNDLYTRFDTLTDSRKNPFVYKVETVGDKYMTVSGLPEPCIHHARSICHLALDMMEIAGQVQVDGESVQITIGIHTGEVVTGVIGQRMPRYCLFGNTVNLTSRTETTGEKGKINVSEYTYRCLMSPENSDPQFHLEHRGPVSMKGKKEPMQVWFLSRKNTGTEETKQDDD
Procedure: The sGC cellular activator assay is performed in the presence and absence of 50% human serum (HS) using Chinese hamster ovary cells that have been stably transfected to express the human soluble guanylate cyclase alpha 1 and beta 1 subunits (sGC). Cells are preincubated with 40 microM 1H-[1,2,4]oxadiazolo[4,3-a]quinoxalin-1-one (ODQ), an sGC inhibitor, for one h in buffer containing 0.1% bovine serum albumin and 3-isobutyl-1-methylxanthine (IBMX). Concentration response curves are prepared for test compounds in DMSO. An intermediate dilution of the compounds is performed in either buffer containing IBMX or type AB HS containing IBMX. Diluted compounds are added to cells and they are incubated at room temperature for thirty min. cGMP is measured using a CisBio homogeneous time resolved fluorescence kit and the EC50 is calculated for each compound.
Representative compounds of the present invention were tested for activity the above assay. Preferred compounds have an EC50 of <1,000 nM in the above assay and more preferred compounds have an EC50<200 nM.

| solubility at 24 h ([1]; pH 2.2, aqueous buffer) | solubility at 24 h ([1]; pH 4.5, aqueous buffer) | solubility at 24 h ([1]; pH 6.8, aqueous buffer) | EC50 [2] | SMILES |
| --- | --- | --- | --- | --- |
| 0.087 mg/mL (≈ 146 µM) | 0.067 mg/mL (≈ 112 µM) | 0.065 mg/mL (≈ 109 µM) | 0.026 µM | CCOc1c(C(=O)O)cnn1-c1cccc(-c2cccc(C)c2OCc2ccc3c(c2C)CCN(C[C@H]2CCCOC2)C3)n1 [Compound 153] |
| 0.1 mg/mL (≈ 180 µM) | 0.077 mg/mL (≈ 139 µM) | 0.043 mg/mL (≈ 77.5 µM) | 0.0097 µM | COc1c(C(=O)O)cnn1-c1cccc(-c2cccc(C)c2OCc2ccc3c(c2C)CCN(C2COC2)CC3)n1 [Compound 176] |
| 0.13 mg/mL (≈ 234 µM) | 0.096 mg/mL (≈ 173 µM) | 0.12 mg/mL (≈ 216 µM) | 0.045 µM | CCOc1c(C(=O)O)cnn1-c1cccc(-c2cccc(C)c2OCc2ccc3c(c2)CCN([C@H]2CCOC2)C3)n1 [Compound 110] |
| 0.12 mg/mL (≈ 188 µM) | 0.058 mg/mL (≈ 91.1 µM) | 0.039 mg/mL (≈ 61.3 µM) | 0.011 µM | CCOc1c(C(=O)O)cnn1-c1cccc(-c2cccc(C)c2OCc2ccc3c(c2C(F)(F)F)CCN(C2CCOCC2)C3)n1 [Compound 165] |
| < 0.0001 mg/mL | 0.00093 mg/mL (≈ 1.65 µM) | 0.073 mg/mL (≈ 130 µM) | 0.11 µM | COc1c(C(=O)O)cnn1-c1cccc(-c2cccc(C)c2OCc2ccc3c(c2C)CCN(S(C)(=O)=O)C3)n1 [Compound 160] |
| 0.1 mg/mL (≈ 176 µM) | 0.0086 mg/mL (≈ 15.1 µM) | 0.044 mg/mL (≈ 77.4 µM) | 0.047 µM | COc1c(C(=O)O)cnn1-c1cccc(-c2cc(C)ccc2OCc2ccc3c(c2C)CCN(C2CCOCC2)C3)n1 [Compound 124] |
| 0.088 mg/mL (≈ 159 µM) | 0.069 mg/mL (≈ 124 µM) | 0.073 mg/mL (≈ 132 µM) | 0.027 µM | COc1c(C(=O)O)cnn1-c1cccc(-c2cccc(C)c2OCc2ccc3c(c2C)CCN([C@@H]2CCOC2)C3)n1 [Compound 106] |
| 0.11 mg/mL (≈ 193 µM) | 0.08 mg/mL (≈ 141 µM) | 0.085 mg/mL (≈ 149 µM) | 0.04 µM | CCOc1c(C(=O)O)cnn1-c1cccc(-c2cccc(C)c2OCc2ccc3c(c2C)CCN(C2COC2)CC3)n1 [Compound 175] |
| 0.11 mg/mL (≈ 201 µM) | 0.077 mg/mL (≈ 141 µM) | 0.091 mg/mL (≈ 166 µM) | 0.032 µM | COc1c(C(=O)O)cnn1-c1cccc(-c2cccc(Cl)c2OCc2ccc3c(c2)CCN(C2COC2)C3)n1 [Compound 7] |
| 0.12 mg/mL (≈ 196 µM) | 0.1 mg/mL (≈ 164 µM) | 0.11 mg/mL (≈ 180 µM) | 0.081 µM | CC[C@H](C)Oc1c(C(=O)O)cnn1-c1cccc(-c2cccc(C)c2OCc2ccc3c(c2C)CCN(C2CCOCC2)C3)n1 [Compound 136] |
| 0.1 mg/mL (≈ 180 µM) | 0.072 mg/mL (≈ 130 µM) | 0.093 mg/mL (≈ 168 µM) | 0.032 µM | CCOc1c(C(=O)O)cnn1-c1cccc(-c2cccc(C)c2OCc2ccc3c(c2C)CCN(C2COC2)C3)n1 [Compound 164] |
| 0.14 mg/mL (≈ 246 µM) | 0.12 mg/mL (≈ 211 µM) | 0.12 mg/mL (≈ 211 µM) | 0.015 µM | COc1c(C(=O)O)cnn1-c1cccc(-c2cccc(C)c2OCc2ccc3c(c2C)CCN([C@@H]2CCCOC2)C3)n1 [Compound 140] |
| 0.0012 mg/mL (≈ 1.96 µM) | 0.0031 mg/mL (≈ 5.08 µM) | 0.075 mg/mL (≈ 123 µM) | 0.45 µM | CCOc1c(C(=O)O)cnn1-c1cccc(-c2cccc(C)c2OCc2ccc3c(c2C)CCN(C(=O)C2CCOCC2)C3)n1 [Compound 147, 5-Ethoxy-1-(6-{3-methyl-2-[5-methyl-2-(tetrahydro-pyran-4-carbonyl)-1,2,3,4-tetrahydro-isoquinolin-6-ylmethoxy]-phenyl}-pyridin-2-yl)-1H-pyrazole-4-carboxylic acid] |
| 0.11 mg/mL (≈ 176 µM) | 0.075 mg/mL (≈ 120 µM) | 0.073 mg/mL (≈ 117 µM) | 0.055 µM | CCOc1c(C(=O)O)cnn1-c1cccc(-c2cccc(C)c2OCc2ccc3c(c2C)CCN(CC2CCOC(C)(C)C2)C3)n1 (stereo not shown) [Compound 163] |
| 0.11 mg/mL (≈ 184 µM) | 0.091 mg/mL (≈ 152 µM) | 0.097 mg/mL (≈ 163 µM) | 0.014 µM | Cc1cc(COc2c(C)cccc2-c2cccc(-n3ncc(C(=O)O)c3OC(C)C)n2)cc2c1CN(C1CCOCC1)CC2 [Compound 161] |
| 0.11 mg/mL (≈ 184 µM) | 0.087 mg/mL (≈ 146 µM) | 0.085 mg/mL (≈ 142 µM) | 0.05 µM | CCOc1c(C(=O)O)cnn1-c1cccc(-c2cccc(C)c2OCc2ccc3c(c2C)CCN(CC2CCOCC2)C3)n1 [Compound 172] |
| 0.11 mg/mL (≈ 193 µM) | 0.092 mg/mL (≈ 162 µM) | 0.094 mg/mL (≈ 165 µM) | 0.013 µM | COc1c(C(=O)O)cnn1-c1cccc(-c2cccc(C)c2OCc2cc(C)c3c(c2C)CN(C2CCOCC2)C3)n1 [Compound 145] |
| 0.093 mg/mL (≈ 160 µM) | 0.077 mg/mL (≈ 132 µM) | 0.078 mg/mL (≈ 134 µM) | 0.015 µM | CCOc1c(C(=O)O)cnn1-c1cccc(-c2cccc(C)c2OCc2ccc3c(c2C)CCN([C@@H]2CCCOC2)C3)n1 [Compound 128] |
| 0.13 mg/mL (≈ 222 µM) | 0.097 mg/mL (≈ 166 µM) | 0.11 mg/mL (≈ 188 µM) | 0.41 µM | CCOc1c(C(=O)O)cnn1-c1cccc(-c2cccc(C)c2OCc2ccc3c(c2)OCCN(C2CCOCC2)C3)n1 [Compound 131] |
| 0.091 mg/mL (≈ 153 µM) | 0.072 mg/mL (≈ 121 µM) | 0.077 mg/mL (≈ 129 µM) | 0.067 µM | CCOc1c(C(=O)O)cnn1-c1cccc(-c2cccc(C)c2OCc2ccc3c(c2)CCN(CC2CC(=O)N(C)C2)C3)n1 (stereo not shown) [Compound 97, 5-ethoxy-1-(6-{3-methyl-2-[2-(1-methyl-5-oxo-pyrrolidin-3-ylmethyl)-1,2,3,4-tetrahydro-isoquinolin-6-ylmethoxy]-phenyl}-pyridin-2-yl)-1H-pyrazole-4-carboxylic acid] |
| 0.12 mg/mL (≈ 211 µM) | 0.099 mg/mL (≈ 174 µM) | 0.098 mg/mL (≈ 172 µM) | 0.016 µM | COc1c(C(=O)O)cnn1-c1cccc(-c2cccc(C)c2OCc2cc(C)c3c(c2)CCN(C2CCOCC2)C3)n1 [Compound 171] |
| 0.094 mg/mL (≈ 169 µM) | 0.05 mg/mL (≈ 90.1 µM) | 0.073 mg/mL (≈ 132 µM) | 0.016 µM | COc1c(C(=O)O)cnn1-c1cccc(-c2cccc(C)c2OCc2ccc3c(c2)C(C)(C)CN(C2COC2)C3)n1 [Compound 10] |
